The values that follow come from publication PMC7921938, “The FDA-Approved Antiviral Raltegravir Inhibits Fascin1-Dependent Invasion of Colorectal Tumor Cells In Vitro and In Vivo” (Cancers, 2021).

Broadly, the Kd is a measure of binding affinity in units of concentration.

This test addresses T1, Fascin1 (Homo sapiens, UniProt Q16658).
T1 construct: gene FSCN1; full-length human Fascin1; in-house protein from pGEX-6P-2A (N-terminal GST, 3C site) in E. coli BL21-gold(DE3), GST cleaved with PreScission
Put plainly: intrinsic fluorescence titration. The test is classed as binding.

`Cc1nnc(C(=O)NC(C)(C)c2nc(C(=O)NCc3ccc(F)cc3)c(O)c(=O)n2C)o1` [raltegravir] gave an equilibrium dissociation constant (Kd) of 180 ± 10 µM.
